Data taken from patent US20080299098A1, “Broad-Spectrum Antibacterial and Antifungal Activity of Lactobacillus Johnsonii D115” (priority 2007, published 2008).
Where two headings read alike, the source gives them in different places.

Tests used:
Brachyspira pilosicoli = details: for Plate count: hydrogen peroxide 3300 μM
[1] = tested on: Brachyspira hyodysenteriae; details: for Plate count: hydrogen peroxide 3100 μM
[2] = hydrogen peroxide at approximately 3,000 μM, 2 h

`OO` [hydrogen peroxide] was tested, and the Plate count (Brachyspira pilosicoli; 0 hr) was 6.00 × 10^6 CFU per ml, the Plate count (Brachyspira pilosicoli; 2 hr) was 3.00 × 10^1 CFU per ml and the reduction of count (Brachyspira pilosicoli; [2]) was 5 logs. For the same molecule, the Plate count ([1]; 0 hr) was 5.0 × 10^5 CFU per ml, the Plate count ([1]; 2 hr) was 9 CFU per ml and the reduction of count [1, 2] was 4 logs.
